Test results published in paper PMC12376128, “In vitro and In Vivo Drug Metabolism Analysis of BPI-460372 - A Covalent TEAD1/3/4 Inhibitor” (Current Drug Metabolism, 2025).

Legend:
[1] = Metabolite identification in rat plasma, urine, feces and bile; assay type: in vivo, SD rats; details: for Relative abundance of MS peak areas, Rat Bile 0-48 h / Relative abundance of MS peak areas, Rat Feces 0-48 h / Relative abundance of MS peak areas, Rat Urine 0-48 h: oral 6 mg/kg BPI-460372, average of male and female pooled samples; for Relative abundance of MS peak areas, Rat Plasma 0-24 h: oral 12 mg/kg BPI-460372, average of male and female pooled samples
Protocol: The plasma samples were acquired from SD rats (n=6, 3 female and 3 male) and beagle dogs (n=6, 3 female and 3 male) after administration of 12 mg/kg and 8 mg/kg of BPI-460372, respectively. The rat urine, feces, and bile samples were acquired in SD rats after administration of 6 mg/kg of BPI-460372.
Equal volume from each rat was pooled together to get 1 male and 1 female 0-24 h plasma samples. An equal percentage by volume of individual urine sample (0-8, 8-24, and 24-48 h) from 3 female and 3 male rats was pooled by time interval across rats, respectively, resulting in two pooled urine samples (1 male and 1 female). An equal percentage by weight of individual feces samples (0-8, 8-24, and 24-48 h) was pooled by time interval across female and male rats, resulting in two pooled fecal samples. An equal percentage by volume of individual bile samples (0-4, 4-8, 8-24, and 24-48 h) was pooled by time interval across female and male rats, resulting in two pooled bile samples. […] Equal volumes from 3 female and 3 male rats were pooled together to get two 0-48 h plasma samples. For blank samples of plasma, urine, and bile, equal volume was pooled across subjects. For a blank sample of feces, equal weight was pooled across rats.
The pooled plasma, feces, and bile samples were extracted by adding 3-fold volume of acetonitrile, and the mixture was vortexed (1 min) and sonicated (1 min) before centrifugation (7220 g, 5 min). The pooled urine samples were centrifuged (7220 g, 5 min). Then the supernatant was transferred into a clean tube and evaporated to dryness under the nitrogen stream. The residues were redissolved with an appropriate volume of acetonitrile/water (20: 80, v: v). After centrifugation, the redissolved solution was transferred into an HPLC vial for UHPLC-Orbitrap-HRMS (15000 g, 10 min, 4°C).

[2] = tested on: cysteine S-conjugate β-lyase; assay: Effect of cysteine S-conjugate β-lyase inhibitor AOAA on the metabolism of BPI-460372 (rat urine); details: for Area ratio in rat urine, mean (%CV): 20 mg/kg BPI-460372 + 100 mg/kg AOAA, once daily 21 days, urine 0-48 h on day 21; for Change of area ratio in rat urine on coadministration with AOAA: 20 mg/kg BPI-460372 with versus without 100 mg/kg AOAA
[3] = tested on: rat hepatocytes; assay: Metabolism and metabolite formation in hepatocytes; assay type: in vitro ADME, SD rat; details: SD rat hepatocytes, 10 µM BPI-460372, 4 h incubation
Excerpt: (§1) All the samples were duplicates.

[4] = tested on: human hepatocytes; assay: Metabolism and metabolite formation in hepatocytes; details: human hepatocytes, 10 µM BPI-460372, 4 h incubation
Protocol: 10 µM BPI-460372 was incubated in five species (human, cynomolgus monkey, beagle dog, SD rat, and ICR mouse) hepatocytes (1 × 10^6 cells·min^-1) at 37 °C for 4 h. 7-EC, as positive control, was incubated for 0 h and 4 h. For blank control, hepatocytes were inactivated by adding ice-cold acetonitrile, and then the BPI-460372 solution was added. All the samples were duplicates. Incubations were stopped using the same volume of cold acetonitrile. The tube was vortexed, and the duplicate samples were combined. Metabolite profiling and identification of BPI-460372 were conducted by using UHPLC-Orbitrap-HRMS. The samples of 7-EC were analyzed by LC-MS/MS and then semi-quantified using the peak area ratio of analyte versus IS.
For hepatocyte metabolite identification, the different metabolites of BPI-460372 were detected using an ACQUITY UPLC HSS T3 column (1.8 µm, 100 mm × 2.1 mm) and ACQUITY UPLC BEH C18 column (1.7 µm, 100 mm × 2.1 mm) for rat and dog metabolite identification. The mobile phase contained a mixture of 0.1% formic acid in water (A) and 0.1% formic acid in acetonitrile (B). The gradient elution program was as follows: 0.0-1.0 min, 5% B; 1.0-7.0 min, 5%-30% B; 7.0-12.0 min, 30%-80% B; 12.0-16.0 min, 80%-95% B; 16.0-18.0 min, 95% B; 18.0-18.1 min, 95%-5% B. Then, 5% B from 18.1 to 20.0 min was maintained for equilibration. The flow rate was set to 0.5 mL/min, and the column temperature was kept at 40°C. Eluted fractions were monitored by a UV detector at 314 nm.

[5] = tested on: mouse hepatocytes; assay: Metabolism and metabolite formation in hepatocytes; assay type: in vitro ADME, ICR mouse; details: ICR mouse hepatocytes, 10 µM BPI-460372, 4 h incubation
Excerpt: as §1

[6] = tested on: dog hepatocytes; assay: Metabolism and metabolite formation in hepatocytes; assay type: in vitro ADME, beagle dog; details: beagle dog hepatocytes, 10 µM BPI-460372, 4 h incubation
Excerpt: as §1

[7] = tested on: monkey hepatocytes; assay: Metabolism and metabolite formation in hepatocytes; assay type: in vitro ADME, cynomolgus monkey; details: cynomolgus monkey hepatocytes, 10 µM BPI-460372, 4 h incubation
Excerpt: as §1

[8] = Metabolic stability in hepatocytes; details: hepatocytes
Protocol: (§2) After mixing, 20 μL of cell suspension was serially transferred into 200 μL of cold acetonitrile containing IS at the time points of 0, 5, 15, 30, 60, and 120 min, respectively.
(§3) The metabolic stability was assessed by measuring the depletion of substrate. The half-life (t1/2), intrinsic clearance (CLint, in virto, µL·min^-1·million cells^-1), whole liver intrinsic clearance (CLint, in vivo, mL·min-1·kg^-1), and in vivo hepatic clearance (CLH, mL·min-1·kg^-1) were calculated following a reported method. In the calculation of CLH, the fraction drug unbound (Fub) was set as 1. The hepatic blood flow, liver weight, and hepatocellularity of five species were used for the calculation of CLint, in vivo [13, 14]. The hepatic extraction ratio (Eh) means the ratio of CLH to hepatic blood flow.

[9] = tested on: monkey hepatocytes; assay: Metabolic stability in hepatocytes; details: monkey hepatocytes
Protocol: as §2, §3

[10] = tested on: mouse hepatocytes; assay: Metabolic stability in hepatocytes; details: mouse hepatocytes
Protocol: as §2, §3

[11] = tested on: human hepatocytes; assay: Metabolic stability in hepatocytes; details: human hepatocytes
Protocol: as §2, §3

[12] = tested on: dog hepatocytes; assay: Metabolic stability in hepatocytes; details: dog hepatocytes
Protocol: as §2, §3

[13] = tested on: rat hepatocytes; assay: Metabolic stability in hepatocytes; details: rat hepatocytes
Protocol: as §2, §3

NC(CSCC(O)C(=O)N1CC(n2c(=O)n(-c3ccc(C(F)(F)F)cc3)c3cncnc32)C1)C(=O)O (centres unmarked) [M526]
Relative abundance of MS peak areas, Rat Bile 0-48 h [1]: 1.52%

CC(=O)NC(CSCCC(=O)N1CC(n2c(=O)n(-c3ccc(C(F)(F)F)cc3)c3cncnc32)C1)C(=O)O (centres unmarked) [M552]
Relative abundance of MS peak areas, Rat Bile 0-48 h [1]: 0.56% | Relative abundance of MS peak areas, Rat Feces 0-48 h [1]: 1.65% | Relative abundance of MS peak areas, Rat Urine 0-48 h [1]: 6.73% | Relative abundance of MS peak areas, Rat Plasma 0-24 h [1]: 0.015%

CC(=O)NC(CSCC(O)C(=O)N1CC(n2c(=O)n(-c3ccc(C(F)(F)F)cc3)c3cncnc32)C1)C(=O)O (centres unmarked) [M568]
Relative abundance of MS peak areas, Rat Bile 0-48 h [1]: 3.22% | Relative abundance of MS peak areas, Rat Feces 0-48 h [1]: 0.45% | Relative abundance of MS peak areas, Rat Urine 0-48 h [1]: 1.80% | Area ratio in rat urine, mean (%CV) [2]: 0.06 (20) | Change of area ratio in rat urine on coadministration with AOAA [2]: reduced

CC(=O)NC(CSCC(F)C(=O)N1CC(n2c(=O)n(-c3ccc(C(F)(F)F)cc3)c3nccnc32)C1)C(=O)O (centres unmarked) [M570]
UV (314 nm) Peak Areas Relative Abundance [3]: 2.6% | UV (314 nm) Peak Areas Relative Abundance [4]: 1.48% | UV (314 nm) Peak Areas Relative Abundance [5]: 3.57% | Relative abundance of MS peak areas, Rat Bile 0-48 h [1]: 45.40% | Relative abundance of MS peak areas, Rat Feces 0-48 h [1]: 3.96% | Relative abundance of MS peak areas, Rat Urine 0-48 h [1]: 34.25% | Relative abundance of MS peak areas, Rat Plasma 0-24 h [1]: 0.12% | UV (314 nm) Peak Areas Relative Abundance [6]: 2.44% | Area ratio in rat urine, mean (%CV) [2]: 0.08 (40) | Change of area ratio in rat urine on coadministration with AOAA [2]: reduced

NC(CCC(=O)NC(CSCC(O)C(=O)N1CC(n2c(=O)n(-c3ccc(C(F)(F)F)cc3)c3nccnc32)C1)C(=O)NCC(=O)O)C(=O)O (centres unmarked) [M712]
UV (314 nm) Peak Areas Relative Abundance [3]: + | UV (314 nm) Peak Areas Relative Abundance [4]: + | UV (314 nm) Peak Areas Relative Abundance [5]: 1.43% | Relative abundance of MS peak areas, Rat Bile 0-48 h [1]: 0.10% | UV (314 nm) Peak Areas Relative Abundance [7]: + | UV (314 nm) Peak Areas Relative Abundance [6]: +

NC(CCC(=O)NC(CSCC(F)C(=O)N1CC(n2c(=O)n(-c3ccc(C(F)(F)F)cc3)c3nccnc32)C1)C(=O)NCC(=O)O)C(=O)O (centres unmarked) [M714]
UV (314 nm) Peak Areas Relative Abundance [3]: 18.4% | UV (314 nm) Peak Areas Relative Abundance [4]: 3.01% | UV (314 nm) Peak Areas Relative Abundance [5]: 24.76% | Relative abundance of MS peak areas, Rat Bile 0-48 h [1]: 3.27% | UV (314 nm) Peak Areas Relative Abundance [7]: 3.01% | UV (314 nm) Peak Areas Relative Abundance [6]: 22.65%

C[C@]12CC[C@H]3[C@@H](CCC4=CC(=O)CC[C@@]43C)[C@@H]1CC[C@@H]2O [Testosterone, testosterone]
half-life at 1 µM ([8]; ICR, mouse): 14.9 min | half-life at 1 µM ([8]; SD, rat): 13.9 min | half-life at 1 µM ([8]; beagle, dog): 14.1 min | half-life at 1 µM ([8]; human): 13.3 min | half-life at 1 µM ([8]; monkey): 11.5 min | CLH ([9]; Fub set as 1): 36.6 mL/min/kg | CLint, in vivo ([9]; scaled to whole liver): 217.3 mL/min/kg | CLint, in virto ([10]; 1 µM): 46.6 µL·min^-1·Million cells^-1 | CLH ([10]; Fub set as 1): 77.4 mL/min/kg | CLint, in vivo ([10]; scaled to whole liver): 554.1 mL/min/kg | CLint, in virto ([11]; 1 µM): 52.2 µL·min^-1·Million cells^-1 | CLH ([11]; Fub set as 1): 18.7 mL/min/kg | CLint, in vivo ([11]; scaled to whole liver): 188.7 mL/min/kg | CLint, in virto ([12]; 1 µM): 49.1 µL·min^-1·Million cells^-1 | CLH ([12]; Fub set as 1): 28.3 mL/min/kg | CLint, in vivo ([12]; scaled to whole liver): 337.8 mL/min/kg | CLH ([13]; Fub set as 1): 44.6 mL/min/kg | CLint, in vivo ([13]; scaled to whole liver): 233.5 mL/min/kg
